Measured values reported in ChEMBL document CHEMBL5726651, “Alkyne compounds for treatment of complement mediated disorders” (2017).

Target: Complement factor D (Homo sapiens, UniProt P00746)
Experiment: Inhibition Assay: Human factor D (purified from human serum, Complement Technology, Inc.) at 80 nM final concentration is incubated with test compound at various concentrations for 5 minutes at room temperature in 50 mM Tris, 1M NaCl, pH 7.5. A synthetic substrate Z-L-Lys-SBzl and DTNB (Ellman's reagent) are added to final concentrations of 100 μM each. The increase in color is recorded at OD405 nm in a microplate in kinetic mode over 30 minutes with 30 second time points in a […]. IC50 values are calculated by non-linear regression from the percentage of inhibition of complement factor D activity as a function of test compound concentration.

Chain of Complement factor D (P00746 whole entry): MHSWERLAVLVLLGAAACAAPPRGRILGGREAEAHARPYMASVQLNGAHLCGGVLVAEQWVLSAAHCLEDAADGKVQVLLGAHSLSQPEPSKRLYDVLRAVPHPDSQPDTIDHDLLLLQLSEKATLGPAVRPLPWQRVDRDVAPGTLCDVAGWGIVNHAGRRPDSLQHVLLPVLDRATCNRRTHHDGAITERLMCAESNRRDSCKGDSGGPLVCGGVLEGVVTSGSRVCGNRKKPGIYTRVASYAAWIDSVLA

NC(=O)c1nn(CC(=O)N2C[C@H](F)C[C@H]2C(=O)Nc2cncc(Br)n2)c2ccc(C#Cc3ncc(F)cn3)cc12
IC50: < 1000 nM
